Consider seven molecules from ChEMBL document CHEMBL1145998, “Thermal denaturation: a method to rank slow binding, high-affinity P38alpha MAP kinase inhibitors” (J Med Chem, 2003).

For assay [1], the target named is T1, Mitogen-activated protein kinase 14 (Homo sapiens, UniProt Q16539). As to the kind of experiment: Dissociation constant at Tm against human Mitogen-activated protein kinase p38 alpha.
The target in assay [2] is T1, Mitogen-activated protein kinase 14. As to the kind of experiment: Dissociation constant at Tref against human Mitogen-activated protein kinase p38 alpha.
Assay [3] has the same target. As to the kind of experiment: Dissociation constant fit from ITC data against human Mitogen-activated protein kinase p38 alpha (constant fit).
For assay [4] the target is unchanged. The assay can be described thus: Dissociation constant at Tm against human Mitogen-activated protein kinase p38 alpha (fluorescence exchange curve).

The Kd is the concentration at which binding is half-saturated.

T1 sequence (Q16539 whole entry): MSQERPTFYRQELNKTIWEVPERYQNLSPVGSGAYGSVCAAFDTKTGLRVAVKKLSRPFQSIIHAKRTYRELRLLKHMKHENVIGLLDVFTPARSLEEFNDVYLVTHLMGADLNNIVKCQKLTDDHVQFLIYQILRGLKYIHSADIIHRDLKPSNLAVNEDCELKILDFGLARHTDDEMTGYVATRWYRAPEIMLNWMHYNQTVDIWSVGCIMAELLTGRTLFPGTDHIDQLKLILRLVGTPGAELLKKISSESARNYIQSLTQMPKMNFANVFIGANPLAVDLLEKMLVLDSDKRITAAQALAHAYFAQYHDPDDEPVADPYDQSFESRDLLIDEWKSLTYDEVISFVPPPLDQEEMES

As for `O=C(Nc1ccc(OCCN2CCOCC2)c2ccccc12)Nc1ccnn1-c1ccccc1`, the values for the Kd in assay [1], in assay [2] and in assay [3] were 6070 nM, 2400 nM and 1180 nM, respectively.
As for `Cn1nc(C(C)(C)C)cc1NC(=O)Nc1ccc(OCCN2CCOCC2)c2ccccc12`, the results for the Kd in assay [1], in assay [2] and in assay [3] were 210 nM, 25.7 nM and 10 nM, respectively.
Consider `CC(C)c1cc(NC(=O)Nc2ccc(OCCN3CCOCC3)c3ccccc23)n(-c2ccccc2)n1`, for which the dissociation constant Kd in assay [1] amounted to 62.8 nM; in assay [4], 6 nM; in assay [2] it was 3.4 nM.
For `Cc1ccc(-n2nc(C(C)(C)C)cc2NC(=O)Nc2ccccc2)cc1`, the dissociation constant (Kd) in assay [1] is 177 nM; in assay [4], 21 nM; in assay [2], 16.8 nM; in assay [3] it was 5 nM.
In the case of `CC(C)(C)c1cc(NC(=O)Nc2ccc(OCCN3CCOCC3)c3ccccc23)n(-c2ccccc2)n1`, the Kd in assay [1] was 5.3 nM; in assay [4], 0.09 nM; in assay [2], 0.231 nM.
For `Cc1ccc(-n2nc(C(C)(C)C)cc2NC(=O)Nc2cccc3ccccc23)cc1`, the Kd in assay [1] turned out to be 118 nM; in assay [4], 1 nM; in assay [2] it was 10.6 nM.
As for `CC(C)(CO)c1cc(NC(=O)Nc2ccc(OCCN3CCOCC3)c3ccccc23)n(-c2ccccc2)n1`, the Kd amounted to 493 nM in assay [1], 36 nM in assay [4], 56.4 nM in assay [2] and 20 nM in assay [3].
